Results reported in patent US20260285850A1, “SUBSTITUTED OXAZOLIDINONES AND IMIDAZOLINONES AS HERBICIDES” (FMC CORPORATION, priority 2023, published 2026).

How the values were obtained:
Type in all cases: in vivo
[1] = tested on: barnyardgrass (Echinochloa crus-galli); experiment: Test A preemergence soil spray, visual injury rating 0-100; conditions: 10 days
Method in brief: (§1)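 Plants were grown in a loam soil-sand blend and treated with test chemical in a non-phytotoxic solvent mixture containing surfactant, either sprayed on soil preemergence or applied postemergence to 2-10 cm plants. After 10 days in a greenhouse, injury was scored visually against untreated controls, 0 meaning no effect and 100 complete control.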

[2] = tested on: blackgrass (Alopecurus myosuroides); experiment: as above; conditions: 10 days
Method in brief: as §1

corn (Zea mays) [3] = experiment: as above; conditions: 10 days
Method in brief: as §1

[4] = tested on: green foxtail (Setaria viridis); experiment: as above; conditions: 10 days
Method in brief: as §1

kochia (Bassia scoparia) [5] = experiment: as above; conditions: 10 days
Method in brief: as §1

[6] = tested on: oat, wild (wild oat, Avena fatua); experiment: as above; conditions: 10 days
Method in brief: as §1

[7] = tested on: palmer (palmer amaranth, palmer pigweed, Amaranthus palmeri); experiment: as above; conditions: 10 days
Method in brief: as §1

[8] = tested on: ragweed (common ragweed, Ambrosia artemisiifolia); experiment: as above; conditions: 10 days
Method in brief: as §1

[9] = tested on: ryegrass, Italian (italian ryegrass, Lolium multiflorum); experiment: as above; conditions: 10 days
Method in brief: as §1

soybean (Glycine max) [10] = experiment: as above; conditions: 10 days
Method in brief: as §1

[11] = tested on: wheat (Triticum aestivum); experiment: as above; conditions: 10 days
Method in brief: as §1

[12] = tested on: barnyardgrass (Echinochloa crus-galli); experiment: Test A postemergence application, visual injury rating 0-100
Method in brief: as §1

[13] = tested on: blackgrass (Alopecurus myosuroides); experiment: as above
Method in brief: as §1

corn (Zea mays) [14] = experiment: as above
Method in brief: as §1

[15] = tested on: galium (catchweed bedstraw, Galium aparine); experiment: as above
Method in brief: as §1

[16] = tested on: green foxtail (Setaria viridis); experiment: as above
Method in brief: as §1

[17] = tested on: horseweed (Erigeron canadensis); experiment: as above
Method in brief: as §1

kochia (Bassia scoparia) [18] = experiment: as above
Method in brief: as §1

[19] = tested on: oat, wild (wild oat, Avena fatua); experiment: as above
Method in brief: as §1

[20] = tested on: palmer (palmer amaranth, palmer pigweed, Amaranthus palmeri); experiment: as above
Method in brief: as §1

[21] = tested on: ragweed (common ragweed, Ambrosia artemisiifolia); experiment: as above
Method in brief: as §1

[22] = tested on: ryegrass, Italian (italian ryegrass, Lolium multiflorum); experiment: as above
Method in brief: as §1

soybean (Glycine max) [23] = experiment: as above
Method in brief: as §1

[24] = tested on: wheat (Triticum aestivum); experiment: as above
Method in brief: as §1

[25] = tested on: barnyardgrass (Echinochloa crusgalli); experiment: Test B flooded paddy test, visual plant response rating 0-100; conditions: 250 g ai/ha, Flood, applied to paddy water, evaluated after 13 days
Method in brief: (§2)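 Plants were grown to the 2-leaf stage, then pots were flooded to 3 cm above the soil and compound was applied directly to the paddy water, with that depth kept throughout.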

[26] = tested on: ducksalad (Heteranthera limosa); experiment: as above; conditions: 250 g ai/ha, Flood, applied to paddy water, evaluated after 13 days
Method in brief: as §2

rice (Oryza sativa) = experiment: as above; conditions: 250 g ai/ha, Flood, applied to paddy water, evaluated after 13 days
Method in brief: as §2

[27] = tested on: sedge, umbrella (small-flower umbrella sedge, Cyperus difformis); experiment: as above; conditions: 250 g ai/ha, Flood, applied to paddy water, evaluated after 13 days
Method in brief: as §2

[28] = 62 g ai/ha, 0 = no effect, 100 = complete control
[29] = 62 g ai/ha, postemergence, 10 days, 0 = no effect, 100 = complete control
[30] = Postemergence, 16 g ai/ha, greenhouse 10 days, 0 no effect, 100 complete control

SMILES: CC1(C(=O)NC2CC(C(=O)O)C2)CN(c2cc(F)cc(F)c2)C(=O)O1 (stereo not shown) [Compound 119]
- Barnyardgrass plant response rating ([1]; 16 g ai/ha, 0 to 100 scale): 0
- Barnyardgrass plant response rating (0-100) [1, 28]: 80
- Blackgrass plant response rating ([2]; 16 g ai/ha, 0 to 100 scale): 40
- Blackgrass plant response rating (0-100) [2, 28]: 80
- Corn plant response rating (corn (Zea mays) [3]; 16 g ai/ha, 0 to 100 scale): 20
- Corn plant response rating (0-100) (corn (Zea mays) [3]; [28]): 70
- Foxtail, Green plant response rating ([4]; 16 g ai/ha, 0 to 100 scale): 20
- Foxtail, Green plant response rating (0-100) [4, 28]: 90
- Kochia plant response rating (kochia (Bassia scoparia) [5]; 16 g ai/ha, 0 to 100 scale): 0
- Kochia plant response rating (0-100) (kochia (Bassia scoparia) [5]; [28]): 80
- Oat, Wild plant response rating ([6]; 16 g ai/ha, 0 to 100 scale): 90
- Oat, Wild plant response rating (0-100) [6, 28]: 90
- Pigweed, Palmer plant response rating ([7]; 16 g ai/ha, 0 to 100 scale): 10
- Pigweed, Palmer plant response rating (0-100) [7, 28]: 10
- Ragweed plant response rating ([8]; 16 g ai/ha, 0 to 100 scale): 0
- Ragweed plant response rating (0-100) [8, 28]: 0
- Ryegrass, Italian plant response rating ([9]; 16 g ai/ha, 0 to 100 scale): 30
- Ryegrass, Italian plant response rating (0-100) [9, 28]: 80
- Soybean plant response rating (soybean (Glycine max) [10]; 16 g ai/ha, 0 to 100 scale): 0
- Soybean plant response rating (0-100) (soybean (Glycine max) [10]; [28]): 20
- Wheat plant response rating ([11]; 16 g ai/ha, 0 to 100 scale): 10
- Wheat plant response rating (0-100) [11, 28]: 60
- Barnyardgrass plant response rating (0-100) [12, 29]: 100
- Barnyardgrass plant response rating (0 to 100 scale) [12, 30]: 70
- Blackgrass plant response rating (0-100) [13, 29]: 100
- Blackgrass plant response rating (0 to 100 scale) [13, 30]: 80
- Corn plant response rating (0-100) (corn (Zea mays) [14]; [29]): 100
- Corn plant response rating (0 to 100 scale) (corn (Zea mays) [14]; [30]): 100
- Galium plant response rating (0-100) [15, 29]: 60
- Galium plant response rating (0 to 100 scale) [15, 30]: 20
- Foxtail, Green plant response rating (0-100) [16, 29]: 90
- Foxtail, Green plant response rating (0 to 100 scale) [16, 30]: 70
- Horseweed plant response rating (0-100) [17, 29]: 0
- Horseweed plant response rating (0 to 100 scale) [17, 30]: 0
- Kochia plant response rating (0-100) (kochia (Bassia scoparia) [18]; [29]): 80
- Kochia plant response rating (0 to 100 scale) (kochia (Bassia scoparia) [18]; [30]): 10
- Oat, Wild plant response rating (0-100) [19, 29]: 90
- Oat, Wild plant response rating (0 to 100 scale) [19, 30]: 40
- Pigweed, Palmer plant response rating (0-100) [20, 29]: 50
- Pigweed, Palmer plant response rating (0 to 100 scale) [20, 30]: 20
- Ragweed plant response rating (0-100) [21, 29]: 20
- Ragweed plant response rating (0 to 100 scale) [21, 30]: 0
- Ryegrass, Italian plant response rating (0-100) [22, 29]: 60
- Ryegrass, Italian plant response rating (0 to 100 scale) [22, 30]: 0
- Soybean plant response rating (0-100) (soybean (Glycine max) [23]; [29]): 80
- Soybean plant response rating (0 to 100 scale) (soybean (Glycine max) [23]; [30]): 50
- Wheat plant response rating (0-100) [24, 29]: 90
- Wheat plant response rating (0 to 100 scale) [24, 30]: 80
- Plant response rating, Barnyardgrass (0 to 100 scale, 0 is no effect and 100 is complete control) [25]: 0
- Plant response rating, Ducksalad (0 to 100 scale, 0 is no effect and 100 is complete control) [26]: 0
- Plant response rating, Rice (0 to 100 scale, 0 is no effect and 100 is complete control) (rice (Oryza sativa)): 0
- Plant response rating, Sedge, Umbrella (0 to 100 scale, 0 is no effect and 100 is complete control) [27]: 0
